Experiment [1] concerns the target T1, acetylcholinesterase (Homo sapiens, UniProt P22303).
Experiment [2] addresses human cannabinoid CB1 receptor (Homo sapiens, UniProt P21554). Put plainly: biochemical.
Procedure: After incubation of a freshly prepared cell membrane preparation with the [^3H]-ligand, with or without addition of compounds of the invention, separation of bound and free ligand was performed by filtration over glass fiber filters. Radioactivity on the filter was measured by liquid scintillation counting.
Experiment [3] concerns the target T1, acetylcholinesterase. Put plainly: biochemical.

pIC50, pKi: −log10 of the molar value. Read-outs that look alike come from different tables or passages of the source.

T1 sequence (P22303 32-614): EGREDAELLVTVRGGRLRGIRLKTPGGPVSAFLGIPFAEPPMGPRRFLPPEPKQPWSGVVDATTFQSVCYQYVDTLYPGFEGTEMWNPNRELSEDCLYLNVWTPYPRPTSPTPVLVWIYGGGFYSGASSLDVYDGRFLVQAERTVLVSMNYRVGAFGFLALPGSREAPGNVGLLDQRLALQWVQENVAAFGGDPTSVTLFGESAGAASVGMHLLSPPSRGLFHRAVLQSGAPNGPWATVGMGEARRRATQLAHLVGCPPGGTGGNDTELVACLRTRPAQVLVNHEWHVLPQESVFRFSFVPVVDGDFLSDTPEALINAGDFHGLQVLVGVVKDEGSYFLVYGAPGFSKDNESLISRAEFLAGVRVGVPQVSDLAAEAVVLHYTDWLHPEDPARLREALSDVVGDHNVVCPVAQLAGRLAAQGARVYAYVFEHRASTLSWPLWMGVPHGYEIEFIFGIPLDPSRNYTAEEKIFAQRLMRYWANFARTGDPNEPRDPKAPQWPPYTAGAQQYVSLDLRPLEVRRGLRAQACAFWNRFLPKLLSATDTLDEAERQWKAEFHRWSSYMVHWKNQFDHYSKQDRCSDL
Chain of human cannabinoid CB1 receptor (P21554 whole entry): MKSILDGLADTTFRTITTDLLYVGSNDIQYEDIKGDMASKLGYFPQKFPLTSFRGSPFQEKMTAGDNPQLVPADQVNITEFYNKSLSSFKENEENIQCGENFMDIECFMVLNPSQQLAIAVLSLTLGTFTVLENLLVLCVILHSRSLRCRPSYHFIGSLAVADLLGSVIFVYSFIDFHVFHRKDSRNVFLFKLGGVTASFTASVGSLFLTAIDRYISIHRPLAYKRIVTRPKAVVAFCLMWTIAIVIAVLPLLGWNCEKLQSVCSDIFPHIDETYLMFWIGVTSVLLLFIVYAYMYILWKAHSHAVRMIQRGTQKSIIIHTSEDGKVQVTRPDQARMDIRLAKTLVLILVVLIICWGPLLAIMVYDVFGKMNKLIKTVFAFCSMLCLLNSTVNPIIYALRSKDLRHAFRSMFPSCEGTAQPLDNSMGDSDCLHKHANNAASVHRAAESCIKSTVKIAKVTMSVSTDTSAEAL

For `Cc1c(C(=O)NN2CCCCC2)nn(-c2ccc(Cl)cc2Cl)c1-c1ccc(Cl)cc1` [rimonabant], on acetylcholinesterase [1], the negative logarithm of the IC50 (pIC50) was 4.60.
`O=S(=O)(/N=C(/NCCCCNc1c2c(nc3ccccc13)CCCC2)N1CC(c2ccccc2)C(c2ccc(Cl)cc2)=N1)c1ccc(Cl)cc1` (stereo not shown) [compound 2, 4-chloro-N-{[3-(4-chlorophenyl)-4-phenyl-4,5-dihydro-1H-pyrazolyl]-[7-(1,2,3,4-tetrahydroacridin-9-yl-amino)butylamino]methylene}benzene sulfonamide]: at acetylcholinesterase [1], the pIC50 is 5.60. This compound also gave a pKi in experiment [2] of 7.40.
Consider `CN=C(NS(=O)(=O)c1ccc(Cl)cc1)N1C[C@H](c2ccccc2)C(c2ccc(Cl)cc2)=N1` [SLV319], for which, at acetylcholinesterase [3], the pIC50 is 5.20.

For the origin of these results see patent US8063062B2, “Compounds with a combination of cannabinoid-CB1 antagonism and acetylcholinesterase inhibition” (Solvay Pharmaceuticals B.V., priority 2006, dated 2011).
